Laboratory results taken from PubChem BioAssay (NCI).
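48-hour exposure; five concentrations; linearly interpolated endpoints. The concentration for full growth arrest is given as TGI.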

Legend:
Assay in all cases: growth of human tumour cells (NCI), 48 h
[1] = system: UACC-62 melanoma
[2] = system: SK-MEL-5 melanoma
[3] = system: KM12 colon
[4] = system: MOLT-4 leukemia
[5] = system: SNB-75 CNS
[6] = system: COLO 205 colon
[7] = system: HCC-2998 colon
[8] = system: SF-295 CNS
[9] = system: A498 renal
[10] = system: HT29 colon
[11] = system: OVCAR-8 ovarian
[12] = system: SK-OV-3 ovarian
[13] = system: T-47D breast
[14] = system: RXF 393 renal
[15] = system: K-562 leukemia
[16] = system: SK-MEL-28 melanoma
[17] = system: MCF7 breast
[18] = system: NCI-H226 lung
[19] = system: OVCAR-5 ovarian
[20] = system: SN12C renal
[21] = system: SW-620 colon
[22] = system: SR leukemia
[23] = system: MDA-N
[24] = system: DU-145 prostate
[25] = system: MDA-MB-231 breast
[26] = system: EKVX NSCLC
[27] = system: U251 CNS
[28] = system: PC-3 prostate
[29] = system: NCI-H522 lung
[30] = system: NCI/ADR-RES ovarian
[31] = system: BT-549 breast
[32] = system: OVCAR-4 ovarian
[33] = system: MDA-MB-435
[34] = system: IGROV1 ovarian
[35] = system: SF-268 CNS
[36] = system: HS 578T breast
[37] = system: ACHN renal
[38] = system: NCI-H23 lung
[39] = system: 786-0 renal
[40] = system: MALME-3M melanoma
[41] = system: HL-60(TB) leukemia
[42] = system: HCT-116 colon
[43] = system: M14 melanoma
[44] = system: UACC-257 melanoma
[45] = system: OVCAR-3 ovarian
[46] = system: CCRF-CEM leukemia
[47] = system: SK-MEL-2 melanoma
[48] = system: NCI-H460 lung
[49] = system: HCT-15 colon
[50] = system: TK-10 renal
[51] = system: SF-539 CNS
[52] = system: A549 NSCLC
[53] = system: UO-31 renal
[54] = system: HOP-62 NSCLC
[55] = system: CAKI-1 renal
[56] = system: LOX IMVI melanoma
[57] = system: HOP-92 NSCLC
[58] = system: RPMI-8226 leukemia
[59] = system: SNB-19 CNS

Measured: TGI

c1ccc(-c2c3c(nc4c2CC[C@H]4NC2=NCCN2)[C@@H](NC2=NCCN2)CC3)cc1
23.6 µM: [27]
not listed: [58] | [59]
> 100 µM: all other assays above

O=S(=O)(O)c1ccc2c(N=Nc3ccc(N=Nc4ccccc4)cc3)c(O)c(S(=O)(=O)O)cc2c1
not listed: [5] | [9] | [56]
> 100 µM: all other assays above

N=c1ccc2nc(N)nn(O)c-2c1
not listed: [7] | [8] | [14] | [40] | [57]
> 100 µM: all other assays above

O=Cc1c(-c2ccccc2)[nH]c2ccccc2c1=O
34.2 µM: [23]
85.6 µM: [58]
53.9 µM: [2]
88.1 µM: [33]
37.4 µM: [22]
86.4 µM: [5]
82.3 µM: [6]
98.9 µM: [36]
not listed: [14] | [15] | [41] | [46]
> 100 µM: all other assays above
